{"source": "patent US8853264B2", "about": "“Use of lignan compounds for treating or preventing inflammatory disease” (Newtree Industry Co., Ltd., priority 2005, dated 2014)", "key": {"[1]": {"tested_on": "CD4 T cells", "test": "T cell proliferation by MTT assay", "format": "cell-based, mouse", "settings": "antibody (CD3 & CD28) stimulation; macelignan 0.01-100 μg/ml", "source_text": "In order to investigate how macelignan directly affects T cells, the cells were stimulated and treated with macelignan at the same time. Wild type and OT-II transgenic mouse CD4 T cells, and antigen presenting cells were used (T cell receptor of CD4 T cells of OT-II transgenic mouse cells is specific for OVA peptide323-339). Wild type CD4 T cells were stimulated with anti-CD3 and anti-CD28 antibodies (BD Pharmigen, San Diego, Calif.), and OT-II transgenic CD4 T cells were stimulated with OVA peptide (Baylor College of Medicine Protein Co-facility). The effect of macelignan was determined by the degree of proliferation of the T cells by MTT assay and by the level of cytokine production. After culturing for 4 days, the level of cytokine production was measured from the supernatant by ELISA. MTT assay was performed using cell proliferation assay kit I (Roche). Cytokines IL-4, IL-17 and IFN-g were detected. ELISA was performed using primary antibody, secondary antibody, streptavidin-alkaline phosphatase (BD Pharmigen) and phosphatase substrate (Sigma-Aldrich, St. Louis, Mo.) according to the manufacturer's instructions."}, "[2]": {"test": "Skin barrier recovery test (TEWL, skin hydration, erythema index), atopic dermatitis model", "format": "in vivo, NC/Nga mice", "protocol": "8-week-old NC/Nga mice (20-25 g) were purchased from Chungang Lab. Animal. After adapting for 1 week, the NC/Nga mouse was anesthetized with 90% ethyl ether (Ducsan, Korea) and hair was removed from the occipital region and the back of the mouse using depilatory cream (Reckitt Benckiser, France). After allowing micro wound healing for a day, 100 mg of mite antigen cream (Biostir, Inc. Japan) comprising Dermatophagoides farina, which causes atopic dermatitis, as a main ingredient was evenly applied on the ear, occipital region and back, 3 times a week (for 5 weeks, from week 9 to week 13). 2 hours before application of the mite antigen cream, 4% SDS solution was applied at the same area to increase transdermal absorption of the mite antigen cream by inducing the breakdown of skin fats and cuticle layer. From week 3 following the application, IgE value was measured to quantitate the degree of atopic dermatitis. Also during the drug treatment period (week 12 to week 13), 100 mg of the mite antigen cream was applied 3 times a week to prevent spontaneous healing of the atopic dermatitis.\nIn order to induce atopic dermatitis, 100 mg of mite antigen cream was applied on the ear, occipital region and back of NC/Nga mouse (9 to 11 weeks old), except for the negative control group, 3 times a week, 2 hours after the application of 4% SDS solution. Three weeks later, it was observed whether atopic dermatitis was induced by checking skin rash, erythema, cornification, or the like. Atopic dermatitis was induced in all groups except for the negative control group. For drug treatment and evaluation of therapeutic effect, mice were grouped into 12 groups, 6 oral administration groups and 6 topical application groups (each consisting of negative control group, positive control group, macelignan low conc. group, macelignan high conc. group, nutmeg extract low conc. group, and nutmeg extract high conc. group), with n=5 per cage. During the following drug treatment and evaluation period of 2 weeks (12 to 13 weeks old), the negative control groups, which had not been treated with 4% SDS solution and mite antigen cream, were treated with physiological saline (oral administration group) or base cream (topical application group) every day, and the positive control groups, which had been treated with 100 mg of mite antigen cream 2 hours after application of 4% SDS solution, 3 times every week, were treated with physiological saline (oral administration group) or base cream (topical application group). The oral administration groups were treated with 100 mg of mite antigen cream 2 hours after application of 4% SDS solution, 3 times every week, and were treated with macelignan or nutmeg extract at low concentration (50 mg/kg/day) or high concentration (150 mg/kg/day) every day. The topical application groups were treated with 100 mg of mite antigen cream 2 hours after application of 4% SDS solution, 3 times every week, and were treated with macelignan cream or nutmeg extract cream at low concentration (20 mg/kg/day) or high concentration (60 mg/kg/day) every day. Transepidermal water loss (TEWL), skin hydration and erythema index were measured one day before the end of the test. Serum was obtained by retro-orbital blood sampling. After the end of the test (14 weeks old) spleen and skin tissues from occipital region and back were sampled and stored at −70° C. ALN (axillary lymph node) was stored in DMEM containing 2% FBS (fetal bovine serum). The skin tissues were stored in 10% formalin solution.\nOne day before the end of the experiment, TEWL, skin hydration and erythema index were measured to quantitatively compare recovery of skin barrier. TEWL was measured with a tewameter (TM300), skin hydration with a corneometer (CM825), and erythema index with a mexameter (MX18)."}, "[3]": {"settings": "oral administration 50 mg/kg/day"}, "[4]": {"settings": "oral administration 150 mg/kg/day"}, "[5]": {"settings": "oral administration 50 and 150 mg/kg, p<0.01"}, "[6]": {"settings": "topical application 20 mg/kg/day"}, "[7]": {"settings": "topical application 60 mg/kg/day"}, "[8]": {"settings": "topical application 20 and 60 mg/kg, p<0.01"}}}
{"smiles": "COc1cc(C[C@H](C)[C@H](C)Cc2ccc3c(c2)OCO3)ccc1O", "note": "(single isomer, unassigned) [macelignan]", "values": [{"measurement": "proliferation of T cells", "setting": "[1]", "value": "no effect"}, {"measurement": "Erythema Index", "setting": "[2]; [3]", "value": "198.5 ± 46.8"}, {"measurement": "Skin Hydration", "setting": "[2]; [3]", "value": "5.0 ± 0.8", "unit": "AU"}, {"measurement": "TEWL", "setting": "[2]; [3]", "value": "17.6 ± 8.1", "unit": "g/hr · m^2"}, {"measurement": "Erythema Index", "setting": "[2]; [4]", "value": "190 ± 24.4"}, {"measurement": "Skin Hydration", "setting": "[2]; [4]", "value": "6.4 ± 2.8", "unit": "AU"}, {"measurement": "TEWL", "setting": "[2]; [4]", "value": "21.5 ± 9.2", "unit": "g/hr · m^2"}, {"measurement": "skin hydration compared to the positive control group", "setting": "[2]; oral administration 50 and 150 mg/kg", "value": "effect of increasing skin hydration"}, {"measurement": "TEWL compared to the positive control group", "setting": "[2]; [5]", "value": "statistically significant effect of suppressing TEWL"}, {"measurement": "erythema index compared to the positive control group", "setting": "[2]; [5]", "value": "statistically significant effect of decreasing erythema index"}, {"measurement": "Erythema Index", "setting": "[2]; [6]", "value": "163.3 ± 4.0"}, {"measurement": "Skin Hydration", "setting": "[2]; [6]", "value": "12.4 ± 3.9", "unit": "AU"}, {"measurement": "TEWL", "setting": "[2]; [6]", "value": "25.8 ± 3.1", "unit": "g/hr · m^2"}, {"measurement": "Erythema Index", "setting": "[2]; [7]", "value": "190 ± 24"}, {"measurement": "Skin Hydration", "setting": "[2]; [7]", "value": "13.4 ± 4.7", "unit": "AU"}, {"measurement": "TEWL", "setting": "[2]; [7]", "value": "26.2 ± 4.9", "unit": "g/hr · m^2"}, {"measurement": "TEWL compared to the positive control group", "setting": "[2]; [8]", "value": "statistically significant effect of suppressing TEWL"}, {"measurement": "erythema index compared to the positive control group", "setting": "[2]; [8]", "value": "statistically significant effect of decreasing erythema index"}, {"measurement": "skin hydration compared to the positive control group", "setting": "[2]; [8]", "value": "statistically significant effect of increasing skin hydration"}]}
